Laboratory results as given in patent US20260262643A1, “HERBICIDAL BENZOXAZINES” (FMC CORPORATION, priority 2022, published 2026).

Legend:
blackgrass [1] = assay: Test A preemergence; format: in vivo, Alopecurus myosuroides
Method in brief: (§1)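 Seeds in loam–sand blend received a directed preemergence soil spray of compound in non-phytotoxic solvent with surfactant; postemergence plants (2–10 cm, one- to two-leaf stage) were sprayed with the same formulation. After 10 days in greenhouse, injury was rated visually versus untreated controls, 0 (no effect) to 100 (complete control).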

corn [2] = assay: Test A preemergence; format: in vivo, Zea mays
Method in brief: as §1

foxtail, giant [3] = assay: Test A preemergence; format: in vivo, Setaria faberi
Method in brief: as §1

goosegrass [4] = assay: Test A preemergence; format: in vivo, Eleusine indica
Method in brief: as §1

kochia [5] = assay: Test A preemergence; format: in vivo, Bassia scoparia
Method in brief: as §1

oat, wild [6] = assay: Test A preemergence; format: in vivo, Avena fatua
Method in brief: as §1

pigweed, palmer [7] = assay: Test A preemergence; format: in vivo, Amaranthus palmeri
Method in brief: as §1

ragweed [8] = assay: Test A preemergence; format: in vivo, Ambrosia artemisiifolia
Method in brief: as §1

ryegrass, Italian [9] = assay: Test A preemergence; format: in vivo, Lolium multiflorum
Method in brief: as §1

soybean [10] = assay: Test A preemergence; format: in vivo, Glycine max
Method in brief: as §1

wheat [11] = assay: Test A preemergence; format: in vivo, Triticum aestivum
Method in brief: as §1

blackgrass [12] = assay: Test A postemergence; format: in vivo, Alopecurus myosuroides
Method in brief: as §1

corn [13] = assay: Test A postemergence; format: in vivo, Zea mays
Method in brief: as §1

foxtail, giant [14] = assay: Test A postemergence; format: in vivo, Setaria faberi
Method in brief: as §1

goosegrass [15] = assay: Test A postemergence; format: in vivo, Eleusine indica
Method in brief: as §1

kochia [16] = assay: Test A postemergence; format: in vivo, Bassia scoparia
Method in brief: as §1

oat, wild [17] = assay: Test A postemergence; format: in vivo, Avena fatua
Method in brief: as §1

pigweed, palmer [18] = assay: Test A postemergence; format: in vivo, Amaranthus palmeri
Method in brief: as §1

ragweed [19] = assay: Test A postemergence; format: in vivo, Ambrosia artemisiifolia
Method in brief: as §1

ryegrass, Italian [20] = assay: Test A postemergence; format: in vivo, Lolium multiflorum
Method in brief: as §1

soybean [21] = assay: Test A postemergence; format: in vivo, Glycine max
Method in brief: as §1

wheat [22] = assay: Test A postemergence; format: in vivo, Triticum aestivum
Method in brief: as §1

galium = assay: Test A postemergence; format: in vivo, Galium aparine
Method in brief: as §1

horseweed = assay: Test A postemergence; format: in vivo, Erigeron canadensis
Method in brief: as §1

barnyardgrass = assay: Test B flooded paddy test; format: in vivo, Echinochloa crus-galli; conditions: 250 g ai/ha, Flood, 13 days, 0 to 100 scale (0 no effect, 100 complete control)
Method in brief: (§2)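 Flooded to 3 cm at treatment time, 2-leaf plants got the test compound applied straight into the paddy water. They then stayed under constant flood in a greenhouse for 13 days. Ratings used a 0 to 100 visual scale.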

ducksalad = assay: Test B flooded paddy test; format: in vivo, Heteranthera limosa; conditions: 250 g ai/ha, Flood, 13 days, 0 to 100 scale (0 no effect, 100 complete control)
Method in brief: as §2

rice = assay: Test B flooded paddy test; format: in vivo, Oryza sativa; conditions: 250 g ai/ha, Flood, 13 days, 0 to 100 scale (0 no effect, 100 complete control)
Method in brief: as §2

sedge, umbrella = assay: Test B flooded paddy test; format: in vivo, Cyperus difformis; conditions: 250 g ai/ha, Flood, 13 days, 0 to 100 scale (0 no effect, 100 complete control)
Method in brief: as §2

[23] = 125 g ai/ha, visual injury after 10 days, 0 to 100 scale, 0 is no effect, 100 is complete control
[24] = 500 g ai/ha, 0 to 100 scale (0 no effect, 100 complete control), 10 days
[25] = 125 g ai/ha, postemergence, 10 days, visual injury, 0 to 100 scale (0 no effect, 100 complete control)
[26] = 500 g ai/ha, Postemergence, 0 to 100 scale

Cc1cccc2c1O[C@@H](C)CN2C(=O)c1cc(-n2cncn2)ccc1Cl [Compound 60]
100: Plant response rating, Foxtail, Giant (foxtail, giant [3]; [23]) | Plant response rating, Foxtail, Giant (foxtail, giant [3]; [24]) | Plant response rating, Goosegrass (goosegrass [4]; [23]) | Plant response rating, Goosegrass (goosegrass [4]; [24]) | Plant response rating, Ryegrass, Italian (ryegrass, Italian [9]; [23]) | Plant response rating, Ryegrass, Italian (ryegrass, Italian [9]; [24]) | Plant response rating, Soybean (soybean [10]; [24]) | Plant response rating, Soybean (soybean [21]; [25]) | Plant response rating, Soybean (soybean [21]; [26]) | Plant response rating, Galium (galium; [26])
30: Plant response rating, Corn (corn [2]; [24]) | Plant response rating, Kochia (kochia [5]; [24]) | Plant response rating, Pigweed, Palmer (pigweed, palmer [7]; [23]) | Plant response rating, Wheat (wheat [11]; [24]) | Plant response rating, Corn (corn [13]; [25]) | Plant response rating, Wheat (wheat [22]; [25])
90: Plant response rating, Pigweed, Palmer (pigweed, palmer [7]; [24]) | Plant response rating, Foxtail, Giant (foxtail, giant [14]; [25]) | Plant response rating, Foxtail, Giant (foxtail, giant [14]; [26]) | Plant response rating, Oat, Wild (oat, wild [17]; [26]) | Plant response rating, Galium (galium; [25])
40: Plant response rating, Soybean (soybean [10]; [23])
20: Plant response rating, Blackgrass (blackgrass [1]; [23]) | Plant response rating, Corn (corn [2]; [23]) | Plant response rating, Ragweed (ragweed [8]; [24]) | Plant response rating, Kochia (kochia [16]; [25]) | Plant response rating, Pigweed, Palmer (pigweed, palmer [18]; [25]) | Plant response rating, Ragweed (ragweed [19]; [25])
80: Plant response rating, Corn (corn [13]; [26]) | Plant response rating, Goosegrass (goosegrass [15]; [26])
10: Plant response rating, Blackgrass (blackgrass [12]; [25]) | Plant response rating, Goosegrass (goosegrass [15]; [25])
0: Plant response rating, Kochia (kochia [5]; [23]) | Plant response rating, Oat, Wild (oat, wild [6]; [23]) | Plant response rating, Oat, Wild (oat, wild [6]; [24]) | Plant response rating, Ragweed (ragweed [8]; [23]) | Plant response rating, Wheat (wheat [11]; [23]) | Plant response rating, Ryegrass, Italian (ryegrass, Italian [20]; [25]) | Plant response rating, Horseweed (horseweed; [25]) | Plant response rating, Horseweed (horseweed; [26]) | Plant response rating, Rice (rice)
70: Plant response rating, Blackgrass (blackgrass [1]; [24]) | Plant response rating, Kochia (kochia [16]; [26])
35: Plant response rating, Sedge, Umbrella (sedge, umbrella)
45: Plant response rating, Ducksalad (ducksalad)
15: Plant response rating, Barnyardgrass (barnyardgrass)
60: Plant response rating, Blackgrass (blackgrass [12]; [26]) | Plant response rating, Ryegrass, Italian (ryegrass, Italian [20]; [26]) | Plant response rating, Wheat (wheat [22]; [26])
50: Plant response rating, Oat, Wild (oat, wild [17]; [25]) | Plant response rating, Pigweed, Palmer (pigweed, palmer [18]; [26]) | Plant response rating, Ragweed (ragweed [19]; [26])
